Experiments:
Format in all cases: in vivo
[1] = test system: Alopecurus myosuroides (ALOMY); test: B1 Pre-emergence herbicidal activity; design: key: 5=total damage to plant; 0=no damage to plant; settings: pre-emergence application, evaluated after 13 days
Procedure, shortened: (§1)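 Sow in soil → 1 d glasshouse (24/16 °C, 14 h light, 65% RH) → spray pre-emergence (acetone/water 50:50, 0.5% Tween 20) → grow 13 d, water twice daily → score 0–5 (5 = total damage).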

Avena fatua (AVEFA) [2] = test: B1 Pre-emergence herbicidal activity; design: key: 5=total damage to plant; 0=no damage to plant; settings: pre-emergence application, evaluated after 13 days
Procedure, shortened: as §1

[3] = test system: Triticum aestivium (TRZAW); test: B1 Pre-emergence herbicidal activity; design: key: 5=total damage to plant; 0=no damage to plant; settings: pre-emergence application, evaluated after 13 days
Procedure, shortened: as §1

[4] = test system: Echinochloa crus-galli (ECHCG); test: B1 Pre-emergence herbicidal activity; design: key to Pre-emergence herbicidal activity, ECHCG (damage score 0-5): 5=total damage to plant; 0=no damage to plant; settings: pre-emergence application, evaluated after 13 days
Procedure, shortened: as §1

Lolium perenne (LOLPE) [5] = test: B1 Pre-emergence herbicidal activity; design: key to Pre-emergence herbicidal activity, LOLPE (damage score 0-5): 5=total damage to plant; 0=no damage to plant; settings: pre-emergence application, evaluated after 13 days
Procedure, shortened: as §1

Setaria fabenr (SETFA) = test: B1 Pre-emergence herbicidal activity; design: key to Pre-emergence herbicidal activity, SETFA (damage score 0-5): 5=total damage to plant; 0=no damage to plant; settings: pre-emergence application, evaluated after 13 days
Procedure, shortened: as §1

Avena fatua (AVEFA) [6] = test: B2 Post-emergence herbicidal activity; settings: post-emergence application, evaluated after 13 days
Procedure, shortened: (§2)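 Test seeds are sown in standard soil and raised for 8 days under controlled glasshouse conditions (24/16 °C, 14 h light, 65% humidity). Foliage is then sprayed with compound formulated in 50:50 acetone/water plus 0.5% Tween 20, and plants are rated 0–5 for damage after 13 days.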

[7] = test system: Echinochloa crus-galli (ECHCG); test: B2 Post-emergence herbicidal activity; design: key to Post-emergence herbicidal activity, ECHCG (damage score 0-5): 5=total damage to plant; 0=no damage to plant; settings: post-emergence application, evaluated after 13 days
Procedure, shortened: as §2

Lolium perenne (LOLPE) [8] = test: B2 Post-emergence herbicidal activity; settings: post-emergence application, evaluated after 13 days
Procedure, shortened: as §2

[9] = test system: Alopecurus myosuroides (ALOMY); test: B2 Post-emergence herbicidal activity; design: key: 5=total damage to plant; 0=no damage to plant; settings: post-emergence application, evaluated after 13 days
Procedure, shortened: as §2

Setaria fabenri (SETFA) = test: B2 Post-emergence herbicidal activity; design: key: 5=total damage to plant; 0=no damage to plant; settings: post-emergence application, evaluated after 13 days
Procedure, shortened: as §2

[10] = test system: Triticum aestivium (TRZAW); test: B2 Post-emergence herbicidal activity; design: key: 5=total damage to plant; 0=no damage to plant; settings: post-emergence application, evaluated after 13 days
Procedure, shortened: as §2

## O=C(Nc1ccc(-c2cncc(F)c2)nc1C(F)(F)F)C1CCCC1 [Compound C111]
[1]; rate 1000 g/ha
  Pre-emergence herbicidal activity, ALOMY (damage score 0-5): 1
Avena fatua (AVEFA) [2]; rate 1000 g/ha
  Pre-emergence herbicidal activity, AVEFA (damage score 0-5): 2
[3]; rate 1000 g/ha
  Pre-emergence herbicidal activity, TRAZW (damage score 0-5): 0
[4]; rate 1000 g/ha
  Pre-emergence herbicidal activity, ECHCG (damage score 0-5): 4
Lolium perenne (LOLPE) [5]; rate 1000 g/ha
  Pre-emergence herbicidal activity, LOLPE (damage score 0-5): 1
Setaria fabenr (SETFA); rate 1000 g/ha
  Pre-emergence herbicidal activity, SETFA (damage score 0-5): 5
Avena fatua (AVEFA) [6]; rate 1000 g/ha
  Post-emergence herbicidal activity, AVEFA (damage score 0-5): 4
[7]; rate 1000 g/ha
  Post-emergence herbicidal activity, ECHCG (damage score 0-5): 5
Lolium perenne (LOLPE) [8]; rate 1000 g/ha
  Post-emergence herbicidal activity, LOLPE (damage score 0-5): 2
[9]; rate 1000 g/ha
  Post-emergence herbicidal activity, ALOMY (damage score 0-5): 1
Setaria fabenri (SETFA); rate 1000 g/ha
  Post-emergence herbicidal activity, SETFA (damage score 0-5): 5
[10]; rate 1000 g/ha
  Post-emergence herbicidal activity, TRAZW (damage score 0-5): 0

## O=C(Nc1ccc(-c2cncc(F)c2)nc1C(F)(F)F)c1cccnc1 [Compound C50, N-[6-(5-fluoro-3-pyridyl)-2-(trifluoromethyl)-3-pyridyl]pyridine-3-carboxamide]
[1]; rate 1000 g/ha
  Pre-emergence herbicidal activity, ALOMY (damage score 0-5): 0
Avena fatua (AVEFA) [2]; rate 1000 g/ha
  Pre-emergence herbicidal activity, AVEFA (damage score 0-5): 1
[3]; rate 1000 g/ha
  Pre-emergence herbicidal activity, TRAZW (damage score 0-5): 0
[4]; rate 1000 g/ha
  Pre-emergence herbicidal activity, ECHCG (damage score 0-5): 3
Lolium perenne (LOLPE) [5]; rate 1000 g/ha
  Pre-emergence herbicidal activity, LOLPE (damage score 0-5): 1
Setaria fabenr (SETFA); rate 1000 g/ha
  Pre-emergence herbicidal activity, SETFA (damage score 0-5): 4
Avena fatua (AVEFA) [6]; rate 1000 g/ha
  Post-emergence herbicidal activity, AVEFA (damage score 0-5): 3
[7]; rate 1000 g/ha
  Post-emergence herbicidal activity, ECHCG (damage score 0-5): 2
Lolium perenne (LOLPE) [8]; rate 1000 g/ha
  Post-emergence herbicidal activity, LOLPE (damage score 0-5): 1
[9]; rate 1000 g/ha
  Post-emergence herbicidal activity, ALOMY (damage score 0-5): 1
Setaria fabenri (SETFA); rate 1000 g/ha
  Post-emergence herbicidal activity, SETFA (damage score 0-5): 4
[10]; rate 1000 g/ha
  Post-emergence herbicidal activity, TRAZW (damage score 0-5): 0

## O=C(c1ccccc1)N(CC1CC1)c1ccc(-c2cncc(F)c2)nc1C(F)(F)F [Compound C103]
[1]; rate 1000 g/ha
  Pre-emergence herbicidal activity, ALOMY (damage score 0-5): 0
Avena fatua (AVEFA) [2]; rate 1000 g/ha
  Pre-emergence herbicidal activity, AVEFA (damage score 0-5): 0
[3]; rate 1000 g/ha
  Pre-emergence herbicidal activity, TRAZW (damage score 0-5): 0
[4]; rate 1000 g/ha
  Pre-emergence herbicidal activity, ECHCG (damage score 0-5): 0
Lolium perenne (LOLPE) [5]; rate 1000 g/ha
  Pre-emergence herbicidal activity, LOLPE (damage score 0-5): 0
Setaria fabenr (SETFA); rate 1000 g/ha
  Pre-emergence herbicidal activity, SETFA (damage score 0-5): 1
Avena fatua (AVEFA) [6]; rate 1000 g/ha
  Post-emergence herbicidal activity, AVEFA (damage score 0-5): 2
[7]; rate 1000 g/ha
  Post-emergence herbicidal activity, ECHCG (damage score 0-5): 1
Lolium perenne (LOLPE) [8]; rate 1000 g/ha
  Post-emergence herbicidal activity, LOLPE (damage score 0-5): 1
[9]; rate 1000 g/ha
  Post-emergence herbicidal activity, ALOMY (damage score 0-5): 0
Setaria fabenri (SETFA); rate 1000 g/ha
  Post-emergence herbicidal activity, SETFA (damage score 0-5): 2
[10]; rate 1000 g/ha
  Post-emergence herbicidal activity, TRAZW (damage score 0-5): 0

## O=C(Nc1ccc(-c2cncc(F)c2)nc1C(F)(F)F)c1nccs1 [Compound C117]
[1]; rate 250 g/ha
  Pre-emergence herbicidal activity, ALOMY (damage score 0-5): 0
Avena fatua (AVEFA) [2]; rate 250 g/ha
  Pre-emergence herbicidal activity, AVEFA (damage score 0-5): 0
[3]; rate 250 g/ha
  Pre-emergence herbicidal activity, TRAZW (damage score 0-5): 0
[4]; rate 250 g/ha
  Pre-emergence herbicidal activity, ECHCG (damage score 0-5): 1
Lolium perenne (LOLPE) [5]; rate 250 g/ha
  Pre-emergence herbicidal activity, LOLPE (damage score 0-5): 0
Setaria fabenr (SETFA); rate 250 g/ha
  Pre-emergence herbicidal activity, SETFA (damage score 0-5): 2
Avena fatua (AVEFA) [6]; rate 250 g/ha
  Post-emergence herbicidal activity, AVEFA (damage score 0-5): 3
[7]; rate 250 g/ha
  Post-emergence herbicidal activity, ECHCG (damage score 0-5): 1
Lolium perenne (LOLPE) [8]; rate 250 g/ha
  Post-emergence herbicidal activity, LOLPE (damage score 0-5): 1
[9]; rate 250 g/ha
  Post-emergence herbicidal activity, ALOMY (damage score 0-5): 1
Setaria fabenri (SETFA); rate 250 g/ha
  Post-emergence herbicidal activity, SETFA (damage score 0-5): 4
[10]; rate 250 g/ha
  Post-emergence herbicidal activity, TRAZW (damage score 0-5): 0

## CC(=O)OC(C)(C)C(=O)Nc1ccc(-c2cncc(F)c2)nc1C(F)(F)F [Compound C36]
[1]; rate 1000 g/ha
  Pre-emergence herbicidal activity, ALOMY (damage score 0-5): 0
Avena fatua (AVEFA) [2]; rate 1000 g/ha
  Pre-emergence herbicidal activity, AVEFA (damage score 0-5): 1
[3]; rate 1000 g/ha
  Pre-emergence herbicidal activity, TRAZW (damage score 0-5): 0
[4]; rate 1000 g/ha
  Pre-emergence herbicidal activity, ECHCG (damage score 0-5): 4
Lolium perenne (LOLPE) [5]; rate 1000 g/ha
  Pre-emergence herbicidal activity, LOLPE (damage score 0-5): 1
Setaria fabenr (SETFA); rate 1000 g/ha
  Pre-emergence herbicidal activity, SETFA (damage score 0-5): 4
Avena fatua (AVEFA) [6]; rate 1000 g/ha
  Post-emergence herbicidal activity, AVEFA (damage score 0-5): 2
[7]; rate 1000 g/ha
  Post-emergence herbicidal activity, ECHCG (damage score 0-5): 5
Lolium perenne (LOLPE) [8]; rate 1000 g/ha
  Post-emergence herbicidal activity, LOLPE (damage score 0-5): 1
[9]; rate 1000 g/ha
  Post-emergence herbicidal activity, ALOMY (damage score 0-5): 0
Setaria fabenri (SETFA); rate 1000 g/ha
  Post-emergence herbicidal activity, SETFA (damage score 0-5): 5
[10]; rate 1000 g/ha
  Post-emergence herbicidal activity, TRAZW (damage score 0-5): 1
